Test results reported in ChEMBL document CHEMBL1201862, “PubChem BioAssay data set” (2004).
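Following 48 hours of exposure in 96-well plates, responses at five concentrations were used to interpolate endpoints linearly. GI50: concentration for 50% inhibition of growth.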 Active and inactive are the calls of the source. Cut-off read from the data, not from the text of the source: active = GI50 up to about 1.1 µM and inactive = higher.

Tests used:
Assay in all cases: DTP human tumour cell line panel, 48 h
ACHN = system: ACHN
LOX IMVI = system: LOX IMVI
SK-OV-3 = system: SK-OV-3
SN12C = system: SN12C
KM12 = system: KM12
OVCAR-4 = system: OVCAR-4
CAKI-1 = system: CAKI-1
PC-3 = system: PC-3
SK-MEL-5 = system: SK-MEL-5
A549 = system: A549
HOP-92 = system: HOP-92
A498 = system: A498
HT-29 = system: HT-29
HCT-116 = system: HCT-116
SK-MEL-2 = system: SK-MEL-2
NCI-H226 = system: NCI-H226
U-251 = system: U-251
MCF7 = system: MCF7
SW-620 = system: SW-620
SNB-19 = system: SNB-19

SMILES	GI50 (ACHN)	GI50 (LOX IMVI)	GI50 (SK-OV-3)	GI50 (SN12C)	GI50 (KM12)	GI50 (OVCAR-4)	GI50 (CAKI-1)	GI50 (PC-3)	GI50 (SK-MEL-5)	GI50 (A549)	GI50 (HOP-92)	GI50 (A498)	GI50 (HT-29)	GI50 (HCT-116)	GI50 (SK-MEL-2)	GI50 (NCI-H226)	GI50 (U-251)	GI50 (MCF7)	GI50 (SW-620)	GI50 (SNB-19)
CCOC(=O)CCC1(C(=O)O[C@@H]2C[C@H](C)CC[C@H]2C(C)C)CCCCC1=O (stereo not given in full)	74.8 µM (inactive)	> 100 µM (inactive)	> 100 µM (inactive)	> 100 µM (inactive)	50.4 µM (inactive)	61.2 µM (inactive)	40.7 µM (inactive)	39.3 µM (inactive)	31.1 µM (inactive)	55.3 µM (inactive)	52.4 µM (inactive)	> 100 µM (inactive)	43.3 µM (inactive)	41.7 µM (inactive)	> 100 µM (inactive)	> 100 µM (inactive)	63.2 µM (inactive)	58.6 µM (inactive)	> 100 µM (inactive)	> 100 µM (inactive)
COc1ccccc1NC(=O)CC(=O)n1nc(C)c(/N=N/c2ccccc2Cl)c1C	> 100 µM (inactive)	> 100 µM (inactive)	48.3 µM (inactive)	> 100 µM (inactive)	> 100 µM (inactive)	> 100 µM (inactive)	> 100 µM (inactive)	> 100 µM (inactive)	> 100 µM (inactive)	> 100 µM (inactive)	> 93.8 µM (inactive)	> 100 µM (inactive)	> 100 µM (inactive)	> 100 µM (inactive)	> 100 µM (inactive)	> 100 µM (inactive)	27.8 µM (inactive)	> 100 µM (inactive)	> 100 µM (inactive)	> 100 µM (inactive)
CN(C)CCCNC(=O)CNC(=O)c1cc(NC(=O)c2cc(NC(=O)c3cc(NC(=O)CCNC(=O)c4cc(NC(=O)c5cc(NC(=O)c6nccn6C)cn5C)cn4C)cn3C)cn2C)cn1C	> 100 µM (inactive)	> 100 µM (inactive)	> 100 µM (inactive)	> 100 µM (inactive)	64.6 µM (inactive)	> 100 µM (inactive)	> 100 µM (inactive)	> 100 µM (inactive)	> 100 µM (inactive)	> 100 µM (inactive)	> 100 µM (inactive)	> 100 µM (inactive)	> 100 µM (inactive)	> 100 µM (inactive)	> 100 µM (inactive)	> 100 µM (inactive)	> 100 µM (inactive)	> 100 µM (inactive)	> 100 µM (inactive)	> 100 µM (inactive)
COc1cc2c(c3oc4c(O)cccc4c(=O)c13)CC(C(C)(O)CCl)O2 (stereo not given)	0.114 µM (active)	< 0.01 µM (active)	4.35 µM (inactive)	0.209 µM (active)	1.29 µM (inactive)	1.45 µM (inactive)	1.16 µM (inactive)	1.22 µM (inactive)	0.279 µM (active)	2.54 µM (inactive)	2.45 µM (inactive)	15.1 µM (inactive)	0.0476 µM (active)	0.157 µM (active)	1.36 µM (inactive)	5.81 µM (inactive)	1.98 µM (inactive)	0.0254 µM (active)	0.0277 µM (active)	4.85 µM (inactive)
CC(C)=CC1CC(C)C2(CCC3(C)CC4C(C(=O)CC4(C)O)/C(C=O)=C\CC32)O1 (stereo not given)	0.0324 µM (active)	0.0582 µM (active)	0.148 µM (active)	0.0638 µM (active)	0.102 µM (active)	0.0356 µM (active)	0.0604 µM (active)	0.038 µM (active)	0.216 µM (active)	0.0685 µM (active)	0.0703 µM (active)	0.278 µM (active)	0.0312 µM (active)	0.0407 µM (active)	0.144 µM (active)	0.0689 µM (active)	0.0735 µM (active)	0.0675 µM (active)	0.0205 µM (active)	0.177 µM (active)
CCCCCCCCCCCCCCCCCCN(C)C(COC)COP(=O)([O-])OCC[N+](C)(C)C (stereo not given)	11.9 µM (inactive)	4.49 µM (inactive)	11.2 µM (inactive)	4.23 µM (inactive)	1.66 µM (inactive)	3.69 µM (inactive)	3.69 µM (inactive)	1.53 µM (inactive)	12.9 µM (inactive)	6.68 µM (inactive)	1.89 µM (inactive)	7.38 µM (inactive)	2.94 µM (inactive)	4.68 µM (inactive)	18.7 µM (inactive)	3.58 µM (inactive)	1.97 µM (inactive)	10.1 µM (inactive)	6.47 µM (inactive)	3.61 µM (inactive)
COc1ccc(C2SCC(=O)N2c2ccc(-c3ccc(-n4c(-c5ccccc5)nc5ccccc5c4=O)cc3)cc2)cc1 (stereo not given)	70 µM (inactive)	> 100 µM (inactive)	> 100 µM (inactive)	> 100 µM (inactive)	21.1 µM (inactive)	42.4 µM (inactive)	95.3 µM (inactive)	34 µM (inactive)	26.9 µM (inactive)	> 100 µM (inactive)	15.7 µM (inactive)	> 100 µM (inactive)	12.7 µM (inactive)	57.9 µM (inactive)	26.6 µM (inactive)	65.3 µM (inactive)	48.5 µM (inactive)	26.1 µM (inactive)	94.4 µM (inactive)	> 100 µM (inactive)
CSC12c3cc(C)n(-c4ccc(I)cc4)c3CC(C)(C)CN1C(=O)C2Oc1ccccc1 (stereo not given)	> 100 µM (inactive)	> 100 µM (inactive)	> 100 µM (inactive)	> 100 µM (inactive)	> 100 µM (inactive)	> 100 µM (inactive)	> 100 µM (inactive)	98.6 µM (inactive)	97.5 µM (inactive)	> 96.4 µM (inactive)	> 100 µM (inactive)	97.5 µM (inactive)	> 100 µM (inactive)	48.6 µM (inactive)	> 100 µM (inactive)	> 100 µM (inactive)	> 100 µM (inactive)	14.1 µM (inactive)	> 100 µM (inactive)	> 100 µM (inactive)
CCOC(=O)/C(C#N)=C1\c2c([nH]c(=S)[nH]c2=O)Oc2ccc3ccccc3c21	28.8 µM (inactive)	> 100 µM (inactive)	44.9 µM (inactive)	41.1 µM (inactive)	> 100 µM (inactive)	> 100 µM (inactive)	75 µM (inactive)	34 µM (inactive)	14 µM (inactive)	1.67 µM (inactive)	43.5 µM (inactive)	36.6 µM (inactive)	12.4 µM (inactive)	67.3 µM (inactive)	13 µM (inactive)	18 µM (inactive)	23.7 µM (inactive)	30.1 µM (inactive)	4.06 µM (inactive)	0.0887 µM (active)
O=C1CCCC/C1=C(\Br)I	16.1 µM (inactive)	16.7 µM (inactive)	22 µM (inactive)	16.9 µM (inactive)	17.1 µM (inactive)	15.4 µM (inactive)	12.4 µM (inactive)	17.3 µM (inactive)	17.9 µM (inactive)	23.3 µM (inactive)	17.9 µM (inactive)	19.4 µM (inactive)	12.9 µM (inactive)	12 µM (inactive)	22.3 µM (inactive)	23.4 µM (inactive)	18 µM (inactive)	12.8 µM (inactive)	3.39 µM (inactive)	20.7 µM (inactive)
O=C1C(N2CCN(c3ccccn3)CC2)=C(Cl)C(=O)c2ncccc21	2.14 µM (inactive)	2.22 µM (inactive)	> 10 µM (inactive)	1.66 µM (inactive)	> 4.33 µM (inactive)	0.637 µM (active)	0.433 µM (active)	> 9.16 µM (inactive)	1.79 µM (inactive)	> 10 µM (inactive)	1.58 µM (inactive)	5.07 µM (inactive)	2.88 µM (inactive)	1.71 µM (inactive)	2.31 µM (inactive)	> 10 µM (inactive)	> 10 µM (inactive)	1.76 µM (inactive)	1.23 µM (inactive)	> 10 µM (inactive)
C[C@@H]1OCC(O)C([C@H]2OC(c3ccccc3)=N[C@H]2CO)O1 (stereo not given in full)	> 100 µM (inactive)	> 100 µM (inactive)	> 100 µM (inactive)	> 100 µM (inactive)	> 100 µM (inactive)	> 100 µM (inactive)	> 100 µM (inactive)	> 100 µM (inactive)	> 100 µM (inactive)	> 100 µM (inactive)	> 100 µM (inactive)	> 100 µM (inactive)	> 100 µM (inactive)	> 100 µM (inactive)	> 100 µM (inactive)	> 100 µM (inactive)	> 100 µM (inactive)	> 100 µM (inactive)	> 100 µM (inactive)	> 100 µM (inactive)
COC(=O)[C@@H](COC(=O)/C=C/c1ccc(OC(C)=O)c(OC(C)=O)c1)NC(=O)/C=C/c1ccc(OC(C)=O)c(OC(C)=O)c1	32.2 µM (inactive)	11.3 µM (inactive)	55.5 µM (inactive)	18 µM (inactive)	25.1 µM (inactive)	16.4 µM (inactive)	15.3 µM (inactive)	23.1 µM (inactive)	13.4 µM (inactive)	42.8 µM (inactive)	32.7 µM (inactive)	80.9 µM (inactive)	22.4 µM (inactive)	16 µM (inactive)	21.7 µM (inactive)	35.6 µM (inactive)	33.7 µM (inactive)	33.9 µM (inactive)	33.3 µM (inactive)	44.5 µM (inactive)
